The values that follow come from patent US20260184663A1, “INDENE COMPOUNDS, PHARMACEUTICAL COMPOSITIONS THEREOF, AND THEIR THERAPEUTIC APPLICATIONS” (NucMito Pharmaceuticals co. Ltd., priority 2022, published 2026).

Read-outs that look alike come from different tables or passages of the source.

Common to all, as to type: cell-based
The subject of assay [1] is alpha-smooth muscle actin (α-SMA). Briefly: Inhibition of TGF-β induced expression of alpha-smooth muscle actin (α-SMA) in CFSC cells (western blot). The following applies: compound at 10 μM, TGF-β (10 ng/mL), 24 hours, band intensity vs TGF-β only. The protocol:
The ability of a compound to inhabit the TGF-β induced expression of alpha-smooth muscle actin (α-SMA) was evaluated in CCl4-treated fat storing (CFSC) cells. α-SMA is considered as a reliable marker of hepatic stellate cell activation and a key biomarker for liver fibrosis.
CFSC cells maintained in a DMEM medium supplemented with 10% fetal bovine serum were seeded to 12-well culture dishes and grown to a confluence of 60-70% the next day. Culture was changed to a serum-free DMEM medium, and the cells were treated with a compound at 10 μM in the presence of TGF-β (10 ng/mL). The cells were incubated for another 24 hours. All culture was maintained at 37° C. in 5% carbon dioxide.
An NP-40 lysate solution (50 mM Tris (pH 7.4), 150 mM NaCl, 1% NP-40) with EDTA free cocktail added was used to lyse the cells on ice for 30 min. The lysate was collected and centrifuged at 4° C. for 10 min at 12,000 rpm. The pellet was discarded and the supernatant was transferred to a new tube. Cell lysates were loaded with 5× loading buffer and boiled for 10 min, resolved by 10% SDS-polyacrylamide gel electrophoresis (SDS-PAGE), and transferred to PVDF membrane. The membrane was blocked with 5% skim milk in Tris-buffered saline and TWEEN® 20 (TBST; 10 mM Tris-HCl (pH 8.0), 150 mM NaCl, 0.1% TWEEN® 20) for 1 h at room temperature and then incubated with α-SMA and β-actin antibodies overnight at 4° C. After washing twice with TBST, the membrane was probed with a horseradish […] anti-immunoglobulin (1:5000 dilution) for 1 h at room temperature. After two subsequent rinses in TBST, immunoreactive products were reacted with ECL and visualized by a UVP CHEMSTUDIO™ imaging system. The western blotting bands are quantitated using an ImageJ software. The percentage of inhibition was obtained by calculating the percentage decrease in the band intensity compared to the one treated with TGF-β only.
The results are summarized in Table 1, where A represents a value no less of 80% inhibition, B represents a value less than […] but no less than […], C represents a value less than 50% but no less than 30% inhibition, and D represents a value less than 30% inhibition with a compound at 10 μM.

Assay [2] concerns MDA-MB-231 (breast cancer). Nature of the assay: Antiproliferative activity (CCK-8 cell viability), MDA-MB-231. The following applies: Homo sapiens, 72 h; for inhibition at 3.3 µM: Compound concentration: 3.3 μM; for inhibition at 10 µM: Compound concentration: 10 μM; for inhibition at 30 µM: Compound concentration: 30 μM. An outline of the steps:
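In this CCK-8 viability assay, MDA-MB-231 cells maintained in Dulbecco's modified Eagle's medium containing 10% fetal bovine serum were placed in 96-well plates (2,000-5,000 cells/well) and treated with compound for 72 h at 37° C. A 4 h incubation with 10 μL CCK-8 followed, plates were read at 450 nm, and viability was expressed against DMSO vehicle wells across replicates.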

The test system of a further assay is HepG2 (liver cancer). Nature of the assay: Antiproliferative activity (CCK-8 cell viability), HepG2. The following applies: Homo sapiens, 72 h, read-out: Antiproliferative activity in cancerous cells, HepG2 (inhibition of cell growth); for inhibition at 3.3 µM: Compound concentration: 3.3 μM; for inhibition at 10 µM: Compound concentration: 10 μM. An outline of the steps:
(§1)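 Cells were seeded at 2,000-5,000/well (HeLa in MEM, HepG2 and SW480 in DMEM, A549 in F-12K, all with 10% FBS) and treated with compound at 3.3, 10 or 30 μM for 72 h at 37° C. CCK-8 was added for 4 h, absorbance was read at 450 nm, and viability was expressed relative to DMSO-treated wells.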

The test system of the next assay is SW480 (colon cancer). Briefly: Antiproliferative activity (CCK-8 cell viability), SW480. The following applies: Homo sapiens, 72 h; for inhibition at 3.3 µM: Compound concentration: 3.3 μM; for inhibition at 10 µM: Compound concentration: 10 μM; for inhibition at 30 µM: Compound concentration: 30 μM. The method, boiled down: as §1
The subject of assay [3] is B16F10 (malignant melanoma). Briefly: Antiproliferative activity (CCK-8 cell viability), B16F10. The following applies: Mus musculus, 72 h, read-out: Antiproliferative activity in cancerous cells, B16F10 (inhibition of cell growth); for inhibition at 3.3 µM: B16-F10, Compound concentration: 3.3 μM; for inhibition at 10 µM: B16-F10, Compound concentration: 10 μM. An outline of the steps: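 Attached B16F10 cells in 96-well plates were incubated with compound at 37° C for 72 h, followed by 10 μL CCK-8 reagent per well and a further 4 h incubation. A multi-well plate reader measured absorbance at 450 nm. Percent viability across replicates was calculated against DMSO vehicle-treated cells.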

For assay [4], the system named is A431 (epidermoid carcinoma). Briefly: Antiproliferative activity (CCK-8 cell viability), A431. The following applies: Homo sapiens, 72 h, read-out: Antiproliferative activity in cancerous cells, A431 (inhibition of cell growth); for inhibition at 3.3 µM: A-431, Compound concentration: 3.3 μM; for inhibition at 10 µM: A-431, Compound concentration: 10 μM. An outline of the steps:
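Cell viability of compound-treated A431 cells was measured with a Cell Counting Kit-8. Each well received 10 μL of CCK-8 after 72 h of compound exposure, followed by 4 h incubation at 37° C. and a 450 nm plate-reader measurement. Percent viability was calculated relative to DMSO controls across replicates.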

Assay [5] relates to A549 (lung adenocarcinoma). Briefly: Antiproliferative activity (CCK-8 cell viability), A549. The following applies: Homo sapiens, 72 h, read-out: Antiproliferative activity in cancerous cells, A549 (inhibition of cell growth); for inhibition at 3.3 µM: Compound concentration: 3.3 μM; for inhibition at 10 µM: Compound concentration: 10 μM. An outline of the steps: as §1
Another assay concerns HeLa (cervical cancer). Briefly: Antiproliferative activity (CCK-8 cell viability), HeLa. The following applies: Homo sapiens, 72 h, read-out: Antiproliferative activity in cancerous cells, HELA (inhibition of cell growth); for inhibition at 3.3 µM: Compound concentration: 3.3 μM; for inhibition at 10 µM: Compound concentration: 10 μM. An outline of the steps:
as §1

Setting [6] is: read-out: Antiproliferative activity in cancerous cells, MDA-MB-231 (inhibition of cell growth).
Where [7] appears, read: read-out: Antiproliferative activity in cancerous cells, SW480 (inhibition of cell growth).

Consider `CC1=C(CCO)c2cc(F)ccc2/C1=C\c1cccc(Oc2ccccc2)c1` [A202, (Z)-2-(5-Fluoro-2-methyl-1-(3-phenoxybenzylidene)-1H-inden-3-yl)ethan-1-ol], for which, in assay [1], the inhibition at 10 µM is below 30%.
Same read-out and setting: under `CC1=C(C(C)C(=O)O)c2ccccc2/C1=C\c1ccc(C(C)C)cc1` (stereo not drawn) [D3, (Z)-2-(1-(4-Isopropylbenzylidene)-2-methyl-1H-inden-3-yl)propanoic acid] stands below 30%; under `CC1=C(CCC(=O)O)c2ccccc2/C1=C\c1cccc(Oc2ccccc2)c1` [C24, (Z)-3-(2-Methyl-1-(3-phenoxybenzylidene)-1H-inden-3-yl)propanoic acid], below 30%; under `COc1cc(COc2ccc(F)cc2)ccc1/C=C1/C(C)=C(CC(=O)O)c2cc(F)ccc21` [B25, (Z)-2-(5-Fluoro-1-(4-((4-fluorophenoxy)methyl)-2-methoxybenzylidene)-2-methyl-1H-inden-3-yl)acetic acid], above 80%.
On the same count and under the same terms, under `CC1=C(CC(=O)O)c2cc(F)ccc2/C1=C\c1ccc(COc2ccc(F)cc2)cc1F` [B23, (Z)-2-(5-Fluoro-1-(2-fluoro-4-((4-fluorophenoxy)methyl)benzylidene)-2-methyl-1H-inden-3-yl)acetic acid] stands 50 to 80%.
On to `CC1=C(C=CC(=O)O)c2cc(F)ccc2/C1=C\c1ccc(Oc2ccc(F)cc2)cc1` [C33, 3-(5-Fluoro-1-((Z)-4-(4-fluorophenoxy)benzylidene)-2-methyl-1H-inden-3-yl)-acrylic acid], for which, in assay [1], the inhibition at 10 µM was above 80%.
For `CC1=C(CC(=O)O)c2cc(Cl)ccc2/C1=C/c1ccc(Oc2ccc(F)c(F)c2)cc1` [E29, (E)-2-(5-Chloro-1-(4-(3,4-difluorophenoxy)benzylidene)-2-methyl-1H-inden-3-yl)acetic acid], the inhibition at 3.3 µM in assay [2] (setting [6]) was at least 50%; with HepG2 (liver cancer) it was below 30%; in the assay on SW480 (colon cancer) (setting [7]), below 30%; in assay [3], at least 50%; in assay [4], below 30%; in assay [5], below 30%. Further, the inhibition at 3.3 µM in the assay with HeLa (cervical cancer) was at least 50%. Also, the inhibition at 10 µM was at least 50% in assay [2] (setting [6]); at least 50% with HepG2 (liver cancer); at least 50% with SW480 (colon cancer) (setting [7]); at least 50% in assay [3]; 30 to 50% in assay [4]; at least 50% in assay [5]. Moreover, the inhibition at 10 µM in the assay on HeLa (cervical cancer) is at least 50%. Further, the inhibition at 30 µM in assay [2] (setting [6]) is at least 50%; with HepG2 (liver cancer) (Compound concentration: 30 μM), at least 50%; in the assay with SW480 (colon cancer) (setting [7]) it was at least 50%; in assay [3] (B16-F10, Compound concentration: 30 μM), at least 50%; in assay [4] (A-431, Compound concentration: 30 μM), at least 50%; in assay [5] (Compound concentration: 30 μM), at least 50%. Besides, in the assay with HeLa (cervical cancer) (Compound concentration: 30 μM), the inhibition at 30 µM is at least 50%.
As for `COc1ccc(Oc2ccc(/C=C3/C(C)=C(CC(=O)O)c4cc(F)ccc43)cc2)cc1Cl` [C70, (Z)-2-(1-(4-(3-Chloro-4-methoxyphenoxy)benzylidene)-5-fluoro-2-methyl-1H-inden-3-yl)acetic acid], the inhibition at 3.3 µM was below 30% in assay [2] (setting [6]); below 30% with HepG2 (liver cancer); below 30% in the assay with SW480 (colon cancer) (setting [7]); below 30% in assay [3]; at least 50% in assay [4]; below 30% in assay [5]. For the same molecule, the inhibition at 3.3 µM in the assay with HeLa (cervical cancer) is below 30%. The inhibition at 10 µM in assay [2] (setting [6]) was below 30%; in the assay with HepG2 (liver cancer) it was at least 50%; with SW480 (colon cancer) (setting [7]), below 30%; in assay [3], 30 to 50%; in assay [4] it was at least 50%; in assay [5] it was 30 to 50%. Also, the inhibition at 10 µM in the assay with HeLa (cervical cancer) was at least 50%. The inhibition at 30 µM in assay [2] (read-out: Antiproliferative activity in cancerous cells, MDA-MB-231) was 30 to 50%; with SW480 (colon cancer) (read-out: Antiproliferative activity in cancerous cells, SW480) it was below 30%.
For the molecule `CC1=C(CC(=O)O)c2cc(F)ccc2/C1=C\c1ccc(CCCc2ccc(F)cc2)cc1` [B117, (Z)-2-(5-Fluoro-1-(4-(3-(4-fluorophenyl)propyl)benzylidene)-2-methyl-1H-inden-3-yl)acetic acid], the inhibition at 3.3 µM was below 30% in assay [2] (setting [6]); at least 50% in the assay on HepG2 (liver cancer); at least 50% with SW480 (colon cancer) (setting [7]); below 30% in assay [3]; 30 to 50% in assay [4]; 30 to 50% in assay [5]. Moreover, the inhibition at 3.3 µM in the assay on HeLa (cervical cancer) was below 30%. For the same molecule, the inhibition at 10 µM in assay [2] (setting [6]) is below 30%; in the assay on HepG2 (liver cancer), at least 50%; with SW480 (colon cancer) (setting [7]), at least 50%; in assay [3], at least 50%; in assay [4] it was at least 50%; in assay [5], at least 50%. For the same molecule, the inhibition at 10 µM in the assay with HeLa (cervical cancer) is at least 50%.
